Measurements from patent publication US7250400B2, “Peptides and derivatives thereof showing cell attachment, spreading and detachment activity” (Regen Biotech, Inc., priority 2002, dated 2007).
Entries after “also recorded” stand apart in the source; their conditions may differ.

Assays:
Format in all cases: cell-based
HCE cells [1] = assay: Effect of synthetic peptides on βig-h3-mediated HCE cell adhesion; settings: 100 μM peptide; for cell detachment activity: HCE cell adhesion to βig-h3, FIG. 8a; for inhibition of HCE cell adhesion to βig-h3: preincubation 30 min, dishes coated with 10 μg/ml βig-h3, FIG. 8a
Protocol: (§1) The recombinant βig-h3 fas-1 domain proteins prepared above were assayed for cell attachment activity. First, the recombinant βig-h3 proteins were let to adhere to the bottoms of 96-well microculture plates (Falcon) by incubation at 37° C. for 1 hour and blocked with PBS containing 0.2% BSA. HCE cells were suspended in culture media at a density of 2×10^5 cells/ml. 0.1 ml of the cell suspension was added to each well of the plates coated with the recombinant proteins. Following incubation at 37° C. for 1 hour, unattached cells were removed by washing with PBS. Attached cells were incubated for 1 hour at 37° C. in 50 mM citrate buffer, pH 5.0, containing 3.75 mM p-nitrophenol-N-acetyl 1-β-D-glycosaminide as a hexosaminidase substrate and 0.25% Triton X-100, followed by the addition of 50 mM glycine buffer, pH 10.4, containing 5 mM EDTA to block the enzyme activity. A measurement was made of absorbance at 405 nm in a Multiskan MCC/340 microplate reader.
Effect of the peptides containing conserved sequences of fas-1 domains of βig-h3 on βig-h3-mediated cell adhesion was examined with HCE cells. Cells were preincubated for 30 min in media containing 100 μM of each of the four synthetic peptides or no peptides and transferred to plastic culture dishes coated with 10 μg/ml BSA or 10 μg/ml βig-h3. The attached cells were subjected to quantitative hexosaminidase analysis as in Example 1-2.

HCE cells [2] = assay: Cell adhesion of HCE cells to surfaces coated with synthetic peptides; settings: plates coated with peptide at 0-120 μM, HCE cells 37° C. 1 hour, FIG. 9a
Protocol: as §1
An experiment was carried out to determine whether each of the synthetic peptides is able to mediate cell adhesion. Well plates were coated with each peptide at concentrations of 0, 20, 40, 60, 80, 100 and 120 μM and then incubated with HCE cells at 37° C. for 1 hour. The attached cells were quantitatively analyzed with hexosaminidase as in Example 1-2.

HCE cells [3] = assay: Effect of synthetic peptides on HCE cell adhesion to various extracellular matrix proteins; settings: 100 μM peptide; for inhibition of cell adhesion to fibronectin: plates coated with fibronectin; for inhibition of cell adhesion to fibronectin / inhibition of cell adhesion to laminin / inhibition of cell adhesion to type I collagen / inhibition of cell adhesion to type II collagen / inhibition of cell adhesion to vitronectin: FIG. 10a; for inhibition of cell adhesion to laminin: plates coated with laminin; for inhibition of cell adhesion to type I collagen: plates coated with type I collagen; for inhibition of cell adhesion to type II collagen: plates coated with type II collagen; for inhibition of cell adhesion to vitronectin: plates coated with vitronectin; for inhibition of cell adhesion to βig-h3: plates coated with βig-h3, FIG. 10a
Protocol: as §1
To determine whether the inhibitory activity of synthetic peptides EPDIM (SEQ ID NO:3 and NKDIL (SEQ ID NO:2) against cell adhesion is specific to βig-h3, effects of the synthetic peptides on cell adhesion to various matrix proteins were examined. HCE cells were preincubated in media added with 100 μM of the synthetic peptide EPDIM (SEQ ID NO:3) or NKDIL (SEQ ID NO:2) or none of them and then applied to plates coated with various matrix proteins, including βig-h3, fibronectin, laminin, vitronectin, type I and type II collagen. After 1 hour of incubation, the attached cells were quantitatively analyzed with hexosaminidase as in Example 1-2.

HCE cells [4] = assay: Inhibition of HCE cell adhesion to βig-h3, fibronectin and laminin at various concentrations of EPDIM; settings: EPDIM 0-1,200 μM, FIG. 10b
Protocol: as §1
HCE cells were incubated in media containing the synthetic peptide EPDIM (SEQ ID NO:3) at concentrations of 0, 200, 400, 600, 800, 1,000 and 1,200 μM and applied to plates coated with βig-h3, fibronectin and laminin. Following incubation for 1 hour, the attached cells were quantitatively analyzed with hexosaminidase as in Example 1-2.

α3β1 integrin = assay: Function-blocking anti-integrin antibodies on HCE cell adhesion to plates coated with EPDIM or NKDIL; settings: plates coated with 100 μM peptide, antibodies 5 μg/ml, FIG. 9b
Protocol: Function-blocking experiments using monoclonal antibodies against various integrin subunits were carried out to examine whether α3β1 integrin, known as a surface receptor of βig-h3, would be involved in the cell adhesion mediated by the synthetic peptides EPDIM (SEQ ID NO:3) and NKDIL (SEQ ID NO:2). HCE was preincubated at 37° C. for 30 mm in the presence of each of the monoclonal antibodies (5 μg/ml) against different types of integrins. The preincubated cells were transferred onto plates precoated with 100 μM EPDIM (SEQ ID NO:3) or 100 μM NKDIL (SEQ ID NO:2) and then incubated further at 37° C. for 1 hour, followed by the quantitative analysis with hexosaminidase substrate as in Example 1-2.

HCE cells [5] = assay: Cell attachment activity of recombinant βig-h3 fas-1 domain proteins coated on plates (hexosaminidase assay); settings: HCE cells on plates coated with the recombinant protein, 37° C. 1 hour, FIG. 2
Protocol: as §1

HCE cells [6] = assay: Cell attachment activity of substitution mutants of the 4th fas-1 domain of βig-h3; settings: HCE cells on plates coated with the mutant protein, 37° C. 1 hour, FIG. 6
Protocol: as §1
Examination was made of the cell attachment activity of the mutated proteins wherein the Pro616, Asp617 and Ile618 of βigh3 D-IV were substituted, in combination, with Ser, Ala and Ser, respectively, that is, βigh3 D-IV-sDI, βigh3 D-IV-Pal, βigh3 D-IV-PDs, and βigh3 D-IV-sas. To this end, HCE cells were incubated at 37° C. for 1 hour in well plates coated with the mutant proteins, followed by subjecting the attached cells to the hexosaminidase substrate as in Example 1-2.

α3β1 integrin, sequence (P26006 33-872 limits assumed): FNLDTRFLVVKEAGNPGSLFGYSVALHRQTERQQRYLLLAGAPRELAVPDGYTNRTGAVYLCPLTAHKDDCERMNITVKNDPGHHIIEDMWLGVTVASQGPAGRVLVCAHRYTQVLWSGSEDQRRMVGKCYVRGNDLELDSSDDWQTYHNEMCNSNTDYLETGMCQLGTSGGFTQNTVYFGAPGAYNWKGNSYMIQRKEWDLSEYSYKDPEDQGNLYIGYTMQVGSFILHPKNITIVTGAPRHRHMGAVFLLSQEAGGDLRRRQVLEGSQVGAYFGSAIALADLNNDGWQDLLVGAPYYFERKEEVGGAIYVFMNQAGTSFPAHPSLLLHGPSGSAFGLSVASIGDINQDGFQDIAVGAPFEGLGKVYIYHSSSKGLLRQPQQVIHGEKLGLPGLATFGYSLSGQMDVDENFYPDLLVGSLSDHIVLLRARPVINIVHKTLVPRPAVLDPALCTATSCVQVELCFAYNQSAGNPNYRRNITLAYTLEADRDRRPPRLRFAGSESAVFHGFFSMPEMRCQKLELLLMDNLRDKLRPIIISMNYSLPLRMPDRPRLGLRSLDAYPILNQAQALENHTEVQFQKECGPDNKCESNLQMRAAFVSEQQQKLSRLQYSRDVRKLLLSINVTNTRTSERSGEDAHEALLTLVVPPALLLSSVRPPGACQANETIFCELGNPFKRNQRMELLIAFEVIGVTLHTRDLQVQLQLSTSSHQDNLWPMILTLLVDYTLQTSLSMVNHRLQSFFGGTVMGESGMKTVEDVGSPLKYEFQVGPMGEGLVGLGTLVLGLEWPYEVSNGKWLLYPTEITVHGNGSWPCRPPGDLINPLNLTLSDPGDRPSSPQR
α3β1 integrin, sequence (P26006 876-1051 limits assumed): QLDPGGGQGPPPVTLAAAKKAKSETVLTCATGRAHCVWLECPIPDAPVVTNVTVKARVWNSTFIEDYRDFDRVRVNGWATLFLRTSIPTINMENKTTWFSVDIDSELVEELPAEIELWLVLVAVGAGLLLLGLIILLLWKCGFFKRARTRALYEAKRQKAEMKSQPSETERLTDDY
α3β1 integrin, sequence (P05556 21-798, further chain): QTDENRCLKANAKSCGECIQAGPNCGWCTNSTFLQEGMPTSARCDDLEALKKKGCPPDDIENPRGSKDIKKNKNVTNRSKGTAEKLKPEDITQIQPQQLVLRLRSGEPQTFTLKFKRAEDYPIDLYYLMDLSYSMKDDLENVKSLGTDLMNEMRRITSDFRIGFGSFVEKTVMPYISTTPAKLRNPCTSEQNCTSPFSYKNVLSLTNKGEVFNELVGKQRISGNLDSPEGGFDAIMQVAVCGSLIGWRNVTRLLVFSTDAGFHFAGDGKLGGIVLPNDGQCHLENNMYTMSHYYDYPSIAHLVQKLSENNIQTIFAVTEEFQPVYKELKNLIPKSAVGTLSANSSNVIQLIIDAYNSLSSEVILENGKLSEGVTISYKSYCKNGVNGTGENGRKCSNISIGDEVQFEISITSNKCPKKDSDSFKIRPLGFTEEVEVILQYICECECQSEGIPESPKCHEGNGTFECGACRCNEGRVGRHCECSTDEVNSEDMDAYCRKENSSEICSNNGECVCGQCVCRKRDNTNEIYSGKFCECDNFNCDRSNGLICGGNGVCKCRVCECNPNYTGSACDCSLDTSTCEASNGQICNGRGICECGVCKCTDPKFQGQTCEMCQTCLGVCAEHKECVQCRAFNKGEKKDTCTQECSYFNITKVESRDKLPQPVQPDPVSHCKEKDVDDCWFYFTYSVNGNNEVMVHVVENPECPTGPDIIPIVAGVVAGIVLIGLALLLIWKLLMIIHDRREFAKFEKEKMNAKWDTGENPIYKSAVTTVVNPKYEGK

Molecule | cell detachment activity (HCE cells [1]) | inhibition of HCE cell adhesion to βig-h3 (HCE cells [1]) | ability to mediate cell adhesion (HCE cells [2]) | cell attachment and spreading activity (HCE cells [5]) | cell attachment activity (HCE cells [6]) | further results
DEMPI [reference compound] | failed to show; also recorded: low cell detachment activity | did not affect cell adhesion | not active in cell adhesion | – | – | –
EPDIM [synthetic peptide, a.a] | very excellent cell detachment effect; also recorded: excellent cell detachment activity | significant suppression of the cell attachment activity; also recorded: significantly blocked | capable of mediating cell adhesion in dose-dependent manners; also recorded: mediate cell adhesion in dose-dependent manners | – | – | inhibition of cell adhesion to fibronectin (HCE cells [3]): weakly inhibited; inhibition of cell adhesion to laminin (HCE cells [3]): efficiently blocked; inhibition of cell adhesion to type I collagen (HCE cells [3]): did not affect; inhibition of cell adhesion to type II collagen (HCE cells [3]): did not affect; inhibition of cell adhesion to vitronectin (HCE cells [3]): did not affect; inhibition of cell adhesion to βig-h3 (HCE cells [3]): efficiently blocked; inhibitory effect on cell adhesion to fibronectin (HCE cells [4]): dose-dependent; inhibitory effect on cell adhesion to laminin (HCE cells [4]): dose-dependent; inhibitory effect on cell adhesion to βig-h3 (HCE cells [4]): dose-dependent; α3β1 integrin as receptor in peptide-mediated cell adhesion (α3β1 integrin): revealed to act as a receptor
KADHH [synthetic peptide, a.a] | relatively very low cell detachment effects | weak suppression of cell adhesion; also recorded: weakly inhibited | low in activity compared to NKDIL | – | – | –
NKDIL [synthetic peptide, a.a] | very excellent cell detachment effect; also recorded: excellent cell detachment activity | significant suppression of the cell attachment activity; also recorded: significantly blocked | capable of mediating cell adhesion in dose-dependent manners; also recorded: mediate cell adhesion in dose-dependent manners | – | – | inhibition of cell adhesion to fibronectin (HCE cells [3]): weakly inhibited; inhibition of cell adhesion to laminin (HCE cells [3]): efficiently blocked; inhibition of cell adhesion to type I collagen (HCE cells [3]): did not affect; inhibition of cell adhesion to type II collagen (HCE cells [3]): did not affect; inhibition of cell adhesion to vitronectin (HCE cells [3]): did not affect; inhibition of cell adhesion to βig-h3 (HCE cells [3]): efficiently blocked; α3β1 integrin as receptor in peptide-mediated cell adhesion (α3β1 integrin): revealed to act as a receptor
βigh3-D-I: recombinant His-tagged 1st fas-1 domain of human βig-h3, amino acid residues 133 to 236 (protein) EGPGSFTIFAPSNEAWASLPAEVLDSLVSNVNIELLNALRYHMVGRRVLTDELKHGMTLTSMYQNSNIQIHHYPNGIVTVNCARLLKADHHATNGVVHLIDKVIHHHHHH | – | – | – | weak activity | – | –
βigh3-D-IV: recombinant His-tagged 4th fas-1 domain of human βig-h3, amino acid residues 501 to 632 (protein) MGTVMDVLKGDNRFSMLVAAIQSAGLTETLNREGVYTVFAPTNEAFRALPPRERSRLLGDAKELANILKYHIGDEILVSGGIGALVRLKSLQGDKLEVSLKNNVVSVNKEPVAEPDIMATNGVVHVITNVLHHHHHH | – | – | – | comparable to the activity of wild type βig-h3 | – | –
βigh3 DIV-sas: βigh3 D-IV mutant in which the three amino acids Pro616, Asp617, Ile618 were mutated to Ser, Ala, Ser (protein) MGTVMDVLKGDNRFSMLVAAIQSAGLTETLNREGVYTVFAPTNEAFRALPPRERSRLLGDAKELANILKYHIGDEILVSGGIGALVRLKSLQGDKLEVSLKNNVVSVNKEPVAESASMATNGVVHVITNVLHHHHHH | – | – | – | – | far lower than the control | –
βigh3 D-IV-Pal: βigh3 D-IV mutant having Ala instead of Asp617 (protein) MGTVMDVLKGDNRFSMLVAAIQSAGLTETLNREGVYTVFAPTNEAFRALPPRERSRLLGDAKELANILKYHIGDEILVSGGIGALVRLKSLQGDKLEVSLKNNVVSVNKEPVAEPAIMATNGVVHVITNVLHHHHHH | – | – | – | – | significantly blocked cell adhesion | –
βigh3 D-IV-PDs: βigh3 D-IV mutant having Ser instead of Ile618 (protein) MGTVMDVLKGDNRFSMLVAAIQSAGLTETLNREGVYTVFAPTNEAFRALPPRERSRLLGDAKELANILKYHIGDEILVSGGIGALVRLKSLQGDKLEVSLKNNVVSVNKEPVAEPDSMATNGVVHVITNVLHHHHHH | – | – | – | – | significantly blocked cell adhesion | –
βigh3 D-IV-sDI: βigh3 D-IV mutant having Ser instead of Pro616 (protein) MGTVMDVLKGDNRFSMLVAAIQSAGLTETLNREGVYTVFAPTNEAFRALPPRERSRLLGDAKELANILKYHIGDEILVSGGIGALVRLKSLQGDKLEVSLKNNVVSVNKEPVAESDIMATNGVVHVITNVLHHHHHH | – | – | – | – | comparable to that of the wild type control | –
βigh3-D-III: recombinant His-tagged 3rd fas-1 domain of human βig-h3, amino acid residues 373 to 501 (protein) PDSAKTLFELAAESDVSTAIDLFRQAGLGNHLSGSERLTLLAPLNSVFKDGTPPIDAHTRNLLRNHIIKDQLASKYLYHGQTLETLGGKKLRVFVYRNSLCIENSCIAAHDKRGRYGTLFTMDRVLTPPHHHHHH | – | – | – | almost no activity | – | –
βigh3-D-II: recombinant His-tagged 2nd fas-1 domain of human βig-h3, amino acid residues 242 to 372 (protein) NIQQIIEIEDTFETLRAAVAASGLNTMLEGNGQYTLLAPTNEAFEKIPSETLNRILGDPEALRDLLNNHILKSAMCAEAIVAGLSVETLEGTTLEVGCSGDMLTINGKAIISNKDILATNGVIHYIDELLIHHHHHH | – | – | – | comparable to the activity of wild type βig-h3 | – | –
